Measurements reported in US20120253032A1, “NOVEL CATIONIC LIPIDS WITH SHORT LIPID CHAINS FOR OLIGONUCLEOTIDE DELIVERY” (priority 2009, published 2012).

What was measured:
[1] = tested on: mRNA transcript for the firefly (Photinus pyralis) luciferase gene; assay: In vivo efficacy in luciferase mouse model (bioluminescence, IVIS imager); details: tail vein injection; for Average % Inhibition of Bioluminescence: LNPs prepared from the cationic lipid with Luc siRNA, 3 mg Kg^−1, imaged 48 hours post dose, relative to pre-dose luminescence
Experimental: LNPs utilizing compound 4, in the nominal compositions described immediately above, were evaluated for in vivo efficacy and induction of inflammatory cytokines in a luciferase mouse model. The siRNA targets the mRNA transcript for the firefly (Photinus pyralis) luciferase gene (Accession #M15077). […] The in vivo luciferase model employs a transgenic mouse in which the firefly luciferase coding sequence is present in all cells. ROSA26-LoxP-Stop-LoxP-Luc (LSL-Luc) transgenic mice licensed from the Dana Farber Cancer. Institute are induced to express the Luciferase gene by first removing the LSL sequence with a recombinant Ad-Cre virus (Vector Biolabs). Due to the organo-tropic nature of the virus, expression is limited to the liver when delivered via tail vein injection. Luciferase expression levels in liver are quantitated by measuring light output, using an IVIS imager (Xenogen) following administration of the luciferin substrate (Caliper Life Sciences). Pre-dose luminescence levels are measured prior to administration of the RDVs. Luciferin in PBS (15 mg/mL) is intraperitoneally (IP) injected in a volume of 150 uL. After a four minute incubation period mice are anesthetized with isoflurane and placed in the IVIS imager. The RDVs (containing siRNA) in PBS vehicle were tail vein injected n a volume of 0.2 mL. Final dose levels ranged from 0.3 to 3 mg/kg siRNA. PBS vehicle alone was dosed as a control. Three hours post dose, mice were bled retro-orbitally to obtain plasma for cytokine analysis. Mice were imaged 48 hours post dose using the method described above. Changes in luciferin light output directly correlate with luciferase mRNA levels and represent an indirect measure of luciferase siRNA activity. In vivo efficacy results are expressed as % inhibition of luminescence relative to pre-dose luminescence levels. Plasma cytokine levels were determined using the Searchlight multiplexed cytokine chemoluminescent array (Pierce/Thermo). Systemic administration of the luciferase siRNA RDVs decreased luciferase expression in a dose dependant manner.

IL-6 = assay: Mouse in vivo cytokine IL-6 induction (plasma, Searchlight multiplexed cytokine array); details: RDVs containing luciferase siRNA; plasma 3 hours post dose; relative to PBS control
Experimental: (§1) FIG. 1: Mouse in vivo Cytokine IL-6 Induction 3 hour post injection. LNPs utilizing compound 4, in the nominal compositions described immediately above, were evaluated for in vivo efficacy and induction of inflammatory cytokines in a luciferase mouse model. The siRNA targets the mRNA transcript for the firefly (Photinus pyralis) luciferase gene (Accession #M15077). […] The in vivo luciferase model employs a transgenic mouse in which the firefly luciferase coding sequence is present in all cells. ROSA26-LoxP-Stop-LoxP-Luc (LSL-Luc) transgenic mice licensed from the Dana Farber Cancer. Institute are induced to express the Luciferase gene by first removing the LSL sequence with a recombinant Ad-Cre virus (Vector Biolabs). Due to the organo-tropic nature of the virus, expression is limited to the liver when delivered via tail vein injection. Luciferase expression levels in liver are quantitated by measuring light output, using an IVIS imager (Xenogen) following administration of the luciferin substrate (Caliper Life Sciences). Pre-dose luminescence levels are measured prior to administration of the RDVs. […] In vivo efficacy results are expressed as % inhibition of luminescence relative to pre-dose luminescence levels. Plasma cytokine levels were determined using the Searchlight multiplexed cytokine chemoluminescent array (Pierce/Thermo). […]

mKC = assay: Mouse in vivo cytokine mKC induction (plasma, Searchlight multiplexed cytokine array); details: RDVs containing luciferase siRNA; plasma 3 hours post dose; relative to PBS control
Experimental: as §1, with “2:” for “1:”, “mKC” for “IL-6”

SMILES | Average % Inhibition of Bioluminescence [1] [%] | In vivo efficacy (decrease of luciferase expression) ([1]; RDVs containing luciferase siRNA, 0.3 to 3 mg/kg siRNA, 48 hours post dose) | Mouse plasma level of cytokine IL-6 (IL-6) | Mouse plasma level of cytokine mKC (mKC)
CCCCCCCCOC[C@H](CN(C)C)OCCCCO[C@H]1CC[C@@]2(C)C(=CC[C@H]3[C@@H]4CC[C@H]([C@H](C)CCCC(C)C)[C@@]4(C)CC[C@@H]32)C1 [Compound 4, (2S)-2-{4-[(3β)-cholest-5-en-3-yloxy]butoxy}-N,N-dimethyl-3-(octyloxy)propan-1-amine] | 87 | Greater efficacy | minimal cytokine induction | minimal cytokine induction
CCCCC/C=C\C/C=C\CCCCCCCCOCC(CN(C)C)OCCCCCCCCO[C@H]1CC[C@@]2(C)C(=CC[C@H]3[C@@H]4CC[C@H]([C@H](C)CCCC(C)C)[C@@]4(C)CC[C@@H]32)C1 (stereo partly shown) [Compound 12, S-Octyl CLinDMA, reference compound] | 76 |  | significantly increased | significantly increased
